Measurements: patent publication US8552004B2, “Chemical compounds” (AstraZeneca AB, priority 2010, dated 2013)

molecular target: ATR (Homo sapiens (Human), UniProt Q13535); assay: Cellular Assay - ATR, phosphorylation of Chk1 (Ser 345) in HT29 cells after 4NQO (Test (b)); assay type: cell-based; conditions: cell assay Test (b); pChk1 Ser345 in HT29 cells, 3 μM 4NQO; arithmetic mean
Description: ATM and ATR have distinct and overlapping responses to DNA damage. They must participate together and responses must be co-ordinated. Both pathways may be activated by ionising radiation, however only ATR is activated by UV. Since UV treatment is not practical for use in a high throughput cell assay, the UV mimetic 4NQ0 (Sigma) was chosen to activate the ATR DNA damage response pathway.
Chk1, a downstream protein kinase of ATR, plays a key role in DNA damage checkpoint control. Activation of Chk1 involves phosphorylation of Ser317 and Ser345 (regarded as the preferential target for phosphorylation/activation by ATR). […] Compounds dose ranges were created by diluting in 100% DMSO and then further into assay media (EMEM, 10% FCS, 1% glutamine) using a Labcyte Echo Acoustic dispensing instrument. Cells were plated in 384 well Costar plates at 9×10^4 cells per ml in 40 μL EMEM, 10% FCS, 1% glutamine and grown for 24 hrs. Following addition of compound the cells were incubated for 60 minutes. A final concentration of 3 μM 4NQ0 (prepared in 100% DMSO) was then added using the Labcyte Echo and the cells incubated for a further 60mins. The cells are then fixed by adding 40 μL 3.7% v/v formaldehyde solution for 20 minutes. After removal of fix, cells were washed with PBS and permeabilised in 40 μL of PBS containing 0.1% Triton™ X-100. Cells are then washed and 15 μl primary antibody solution (pChk1 Ser345) added and the plates incubated at 4° C. overnight. […] The plates are washed and left in 40 μl PBS. Plates were then read on an ArrayS can Vti instrument to determine staining intensities, and dose responses were obtained and used to determine the IC50 values for the compounds.

Sequence of ATR (Q13535 whole entry): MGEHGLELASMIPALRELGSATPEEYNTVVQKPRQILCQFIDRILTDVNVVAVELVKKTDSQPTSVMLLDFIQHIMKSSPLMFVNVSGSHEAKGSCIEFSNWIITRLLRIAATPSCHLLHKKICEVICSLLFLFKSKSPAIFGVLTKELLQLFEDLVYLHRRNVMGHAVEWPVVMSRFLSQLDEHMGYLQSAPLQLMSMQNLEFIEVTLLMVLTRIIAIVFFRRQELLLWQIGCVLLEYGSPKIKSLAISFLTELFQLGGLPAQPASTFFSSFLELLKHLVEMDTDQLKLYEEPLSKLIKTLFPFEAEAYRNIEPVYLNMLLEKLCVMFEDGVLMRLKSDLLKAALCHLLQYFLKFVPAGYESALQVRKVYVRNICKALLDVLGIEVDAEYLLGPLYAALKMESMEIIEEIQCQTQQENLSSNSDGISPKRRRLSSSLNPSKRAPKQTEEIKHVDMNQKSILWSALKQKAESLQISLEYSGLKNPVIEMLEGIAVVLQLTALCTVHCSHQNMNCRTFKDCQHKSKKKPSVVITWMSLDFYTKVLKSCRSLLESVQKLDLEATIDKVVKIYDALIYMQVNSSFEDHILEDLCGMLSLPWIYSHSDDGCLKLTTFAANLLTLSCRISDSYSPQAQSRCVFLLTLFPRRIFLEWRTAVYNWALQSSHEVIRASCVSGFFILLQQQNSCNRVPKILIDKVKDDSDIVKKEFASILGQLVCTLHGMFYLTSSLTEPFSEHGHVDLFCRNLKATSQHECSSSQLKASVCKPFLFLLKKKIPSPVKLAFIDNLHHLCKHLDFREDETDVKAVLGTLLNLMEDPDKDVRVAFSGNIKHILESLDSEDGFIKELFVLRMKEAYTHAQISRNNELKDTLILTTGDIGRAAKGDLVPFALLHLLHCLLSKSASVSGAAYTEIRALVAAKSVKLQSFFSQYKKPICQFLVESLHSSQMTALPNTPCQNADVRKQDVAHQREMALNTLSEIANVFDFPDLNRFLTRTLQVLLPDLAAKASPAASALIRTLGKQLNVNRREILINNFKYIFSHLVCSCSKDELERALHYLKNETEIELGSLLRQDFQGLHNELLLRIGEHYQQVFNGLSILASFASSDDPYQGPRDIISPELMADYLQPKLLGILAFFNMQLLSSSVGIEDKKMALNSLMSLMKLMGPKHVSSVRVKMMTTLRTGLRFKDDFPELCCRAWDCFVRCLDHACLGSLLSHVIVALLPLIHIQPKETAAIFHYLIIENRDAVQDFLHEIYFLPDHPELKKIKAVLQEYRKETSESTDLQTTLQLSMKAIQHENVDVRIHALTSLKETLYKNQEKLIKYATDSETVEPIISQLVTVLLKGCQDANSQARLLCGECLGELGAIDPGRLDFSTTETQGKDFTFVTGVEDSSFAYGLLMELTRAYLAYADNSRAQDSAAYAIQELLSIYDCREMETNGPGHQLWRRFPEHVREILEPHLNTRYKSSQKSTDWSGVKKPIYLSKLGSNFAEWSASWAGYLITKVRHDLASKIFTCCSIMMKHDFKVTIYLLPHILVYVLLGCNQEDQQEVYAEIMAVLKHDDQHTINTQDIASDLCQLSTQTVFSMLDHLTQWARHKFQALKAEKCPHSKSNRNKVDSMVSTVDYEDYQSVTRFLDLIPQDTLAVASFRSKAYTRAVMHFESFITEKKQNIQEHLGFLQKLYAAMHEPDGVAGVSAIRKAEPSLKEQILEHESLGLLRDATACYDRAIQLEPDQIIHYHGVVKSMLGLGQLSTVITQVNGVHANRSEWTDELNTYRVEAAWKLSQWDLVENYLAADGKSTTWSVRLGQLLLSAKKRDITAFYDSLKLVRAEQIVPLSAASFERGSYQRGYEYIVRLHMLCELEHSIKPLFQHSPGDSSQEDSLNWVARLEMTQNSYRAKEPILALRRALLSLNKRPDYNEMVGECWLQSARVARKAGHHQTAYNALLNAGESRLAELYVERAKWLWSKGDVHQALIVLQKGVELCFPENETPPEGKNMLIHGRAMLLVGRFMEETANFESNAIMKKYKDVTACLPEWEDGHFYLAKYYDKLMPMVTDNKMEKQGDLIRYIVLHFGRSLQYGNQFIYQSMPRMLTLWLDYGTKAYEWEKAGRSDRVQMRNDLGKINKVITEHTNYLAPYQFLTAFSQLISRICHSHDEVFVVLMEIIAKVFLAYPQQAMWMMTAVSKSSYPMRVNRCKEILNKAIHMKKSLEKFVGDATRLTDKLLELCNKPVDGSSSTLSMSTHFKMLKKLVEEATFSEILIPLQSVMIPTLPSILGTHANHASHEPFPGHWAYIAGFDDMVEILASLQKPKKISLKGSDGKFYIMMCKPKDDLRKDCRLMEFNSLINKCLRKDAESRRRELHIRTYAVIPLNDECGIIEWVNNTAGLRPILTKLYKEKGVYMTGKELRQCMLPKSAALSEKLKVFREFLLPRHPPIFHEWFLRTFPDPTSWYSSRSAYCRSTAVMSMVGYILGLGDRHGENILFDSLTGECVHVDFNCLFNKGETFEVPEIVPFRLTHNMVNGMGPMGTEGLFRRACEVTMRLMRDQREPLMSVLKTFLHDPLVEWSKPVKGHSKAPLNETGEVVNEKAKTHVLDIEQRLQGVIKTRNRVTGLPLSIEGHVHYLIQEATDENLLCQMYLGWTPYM
Sequence of ATR (Q8WXE1 whole entry partner): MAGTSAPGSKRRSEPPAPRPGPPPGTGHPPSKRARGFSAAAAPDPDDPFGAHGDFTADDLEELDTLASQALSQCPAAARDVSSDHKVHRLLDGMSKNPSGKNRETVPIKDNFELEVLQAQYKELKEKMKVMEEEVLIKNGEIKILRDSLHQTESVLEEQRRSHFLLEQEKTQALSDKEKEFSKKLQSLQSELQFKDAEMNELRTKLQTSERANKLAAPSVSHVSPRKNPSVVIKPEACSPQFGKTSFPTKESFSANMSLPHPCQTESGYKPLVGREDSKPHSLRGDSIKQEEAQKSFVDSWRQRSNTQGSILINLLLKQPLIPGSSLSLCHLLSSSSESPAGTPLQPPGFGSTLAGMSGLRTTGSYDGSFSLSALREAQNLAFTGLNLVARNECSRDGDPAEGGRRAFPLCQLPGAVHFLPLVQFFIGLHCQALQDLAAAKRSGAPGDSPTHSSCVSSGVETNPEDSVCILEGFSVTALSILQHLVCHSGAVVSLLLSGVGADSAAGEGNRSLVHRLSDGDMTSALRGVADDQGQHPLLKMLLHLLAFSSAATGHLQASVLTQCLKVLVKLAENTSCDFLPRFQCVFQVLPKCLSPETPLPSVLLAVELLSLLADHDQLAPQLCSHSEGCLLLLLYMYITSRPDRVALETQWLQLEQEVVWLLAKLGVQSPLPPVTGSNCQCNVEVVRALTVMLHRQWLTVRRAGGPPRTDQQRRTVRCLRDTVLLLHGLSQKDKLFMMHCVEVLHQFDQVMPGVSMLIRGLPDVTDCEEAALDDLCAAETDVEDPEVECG

SMILES	IC50 [nM]
C[C@@H]1COCCN1c1cc(C2([S@@](C)(=N)=O)CCOCC2)nc(-c2cccc3[nH]ccc23)n1 [Example 4.03]	51.1
C[C@@H]1COCCN1c1cc(C2([S@](C)(=N)=O)CC2)nc(-c2cccc3[nH]ccc23)n1 [Example 2.05, 4-{4-[(3R)-3-Methylmorpholin-4-yl]-6-[1-((R)—S-methylsulfonimidoyl)cyclopropyl]pyrimidin-2-yl}-1H-indole]	75.8
CNc1nc2ccc(F)cc2n1-c1nc(N2CCOC[C@H]2C)cc(C(C)(C)[S@](C)(=N)=O)n1 [Example 5.03, 6-Fluoro-N-methyl-1-{4-[1-methyl-1-((R)—S-methylsulfonimidoyl)ethyl]-6-[(3R)-3-methylmorpholin-4-yl]pyrimidin-2-yl}-1H-benzimidazol-2-amine]	33.1
C[C@@H]1COCCN1c1cc(C2([S@@](C)(=N)=O)CC2)nc(-n2c(N)nc3ccccc32)n1 [Example 2.08, 1-{4-[(3R)-3-methylmorpholin-4-yl]-6-[1-((S)—S-methylsulfonimidoyl)cyclopropyl]pyrimidin-2-yl}-1H-benzimidazol-2-amine]	2.76
CNc1nc2ccc(F)cc2n1-c1nc(N2CCOC[C@H]2C)cc(C(C)(C)[S@@](C)(=N)=O)n1 [Example 5.06, 6-fluoro-N-methyl-1-{4-[1-methyl-1-((S)—S-methylsulfonimidoyl)ethyl]-6-[(3R)-3-methylmorpholin-4-yl]pyrimidin-2-yl}-1H-benzimidazol-2-amine]	44.4
CNc1nc2cc(F)ccc2n1-c1nc(N2CCOC[C@H]2C)cc(C(C)(C)[S@](C)(=N)=O)n1 [Example 5.04, 5-Fluoro-N-methyl-1-{4-[1-methyl-1-((R)—S-methylsulfonimidoyl)ethyl]-6-[(3R)-3-methylmorpholin-4-yl]pyrimidin-2-yl}-1H-benzimidazol-2-amine]	16.2
CNc1nc2ccc(F)cc2n1-c1nc(N2CCOC[C@H]2C)cc(C2([S@@](C)(=N)=O)CC2)n1 [Example 5.10, 6-fluoro-N-methyl-1-{4-[(3R)-3-methylmorpholin-4-yl]-6-[1-((S)—S-methylsulfonimidoyl)cyclopropyl]pyrimidin-2-yl}-1H-benzimidazol-2-amine]	47
CNc1nc2ccccc2n1-c1nc(N2CCOC[C@H]2C)cc(C(C)(C)[S@](C)(=N)=O)n1 [Example 3.02, N-methyl-1-{4-[1-methyl-1-((R)—S-methylsulfonimidoyl)ethyl]-6-[(3R)-3-methylmorpholin-4-yl]pyrimidin-2-yl}-1H-benzimidazol-2-amine]	8.43
CNc1nc2c(F)cccc2n1-c1nc(N2CCOC[C@H]2C)cc(C2([S@@](C)(=N)=O)CC2)n1 [Example 2.10, 4-fluoro-N-methyl-{4-[(3R)-3-methylmorpholin-4-yl]-6-[1-((S)—S-methylsulfonimidoyl)cyclopropyl]pyrimidin-2-yl}-1H-benzimidazol-2-amine]	109
CNc1nc2c(F)cccc2n1-c1nc(N2CCOC[C@H]2C)cc(C2([S@](C)(=N)=O)CC2)n1 [Example 2.09, 4-Fluoro-N-methyl-1-{4-[(3R)-3-methylmorpholin-4-yl]-6-[1-((R)—S-methylsulfonimidoyl)cyclopropyl]pyrimidin-2-yl}-1H-benzimidazol-2-amine]	159
CNc1nc2cc(F)ccc2n1-c1nc(N2CCOC[C@H]2C)cc(C(C)(C)[S@@](C)(=N)=O)n1 [Example 5.05, 5-Fluoro-N-methyl-1-{4-[1-methyl-1-((S)—S-methylsulfonimidoyl)ethyl]-6-[(3R)-3-methylmorpholin-4-yl]pyrimidin-2-yl}-1H-benzimidazol-2-amine]	18.3
CNc1nc2c(F)cccc2n1-c1nc(N2CCOC[C@H]2C)cc(C(C)(C)[S@@](C)(=N)=O)n1 [Example 5.01, 4-Fluoro-N-methyl-1-{4-[1-methyl-1-((S)—S-methylsulfonimidoyl)ethyl]-6-[(3R)-3-methylmorpholin-4-yl]pyrimidin-2-yl}-1H-benzimidazol-2-amine]	62.5
CNc1nc2ccccc2n1-c1nc(N2CCOC[C@H]2C)cc(C2([S@@](C)(=N)=O)CCOCC2)n1 [Example 4.01, N-Methyl-1-{4-[(3R)-3-methylmorpholin-4-yl]-6-[4-((S)—S-methylsulfonimidoyl)tetrahydro-2H-pyran-4-yl]pyrimidin-2-yl}-1H-benzimidazol-2-amine]	53.6
CNc1nc2ccccc2n1-c1nc(N2CCOC[C@H]2C)cc(C(C)(C)[S@@](C)(=N)=O)n1 [Example 3.01, N-methyl-1-{4-[1-methyl-1-((S)—S-methylsulfonimidoyl)ethyl]-6-[(3R)-3-methylmorpholin-4-yl]pyrimidin-2-yl}-1H-benzimidazol-2-amine]	12.8
C[C@@H]1COCCN1c1cc(C2([S@@](C)(=N)=O)CC2)nc(-c2cccc3[nH]ccc23)n1 [Example 2.06, 4-{4-[(3R)-3-methylmorpholin-4-yl]-6-[1-((S)—S-methylsulfonimidoyl)cyclopropyl]pyrimidin-2-yl}-1H-indole]	12.9
C[C@@H]1COCCN1c1cc(C2([S@](C)(=N)=O)CC2)nc(-n2c(N)nc3ccccc32)n1 [Example 2.07, 1-{4-[(3R)-3-Methylmorpholin-4-yl]-6-[1-((R)—S-methylsulfonimidoyl)cyclopropyl]pyrimidin-2-yl}-1H-benzimidazol-2-amine]	2.58
CNc1nc2ccccc2n1-c1nc(N2CCOC[C@H]2C)cc(C2([S@](C)(=N)=O)CCOCC2)n1 [Example 4.02, N-methyl-1-{4-[(3R)-3-methylmorpholin-4-yl]-6-[4-((R)—S-methylsulfonimidoyl)tetrahydro-2H-pyran-4-yl]pyrimidin-2-yl}-1H-benzimidazol-2-amine]	39.8
CNc1nc2cc(F)ccc2n1-c1nc(N2CCOC[C@H]2C)cc(C2([S@@](C)(=N)=O)CC2)n1 [Example 5.09, 5-fluoro-N-methyl-1-{4-[(3R)-3-methylmorpholin-4-yl]-6-[1-((S)—S-methylsulfonimidoyl)cyclopropyl]pyrimidin-2-yl}-1H-benzimidazol-2-amine]	18
CNc1nc2cc(F)ccc2n1-c1nc(N2CCOC[C@H]2C)cc(C2([S@](C)(=N)=O)CC2)n1 [Example 5.08, 5-fluoro-N-methyl-1-{4-[(3R)-3-methylmorpholin-4-yl]-6-[1-((R)—S-methylsulfonimidoyl)cyclopropyl]pyrimidin-2-yl}-1H-benzimidazol-2-amine]	10.1
CNc1nc2ccc(F)cc2n1-c1nc(N2CCOC[C@H]2C)cc(C2([S@](C)(=N)=O)CC2)n1 [Example 5.07, 6-Fluoro-N-methyl-1-{4-[(3R)-3-methylmorpholin-4-yl]-6-[1-((R)—S-methylsulfonimidoyl)cyclopropyl]pyrimidin-2-yl}-1H-benzimidazol-2-amine]	29
CNc1nc2c(F)cccc2n1-c1nc(N2CCOC[C@H]2C)cc(C(C)(C)[S@](C)(=N)=O)n1 [Example 5.02, 4-fluoro-N-methyl-1-{4-[1-methyl-1-((R)—S-methylsulfonimidoyl)ethyl]-6-[(3R)-3-methylmorpholin-4-yl]pyrimidin-2-yl}-1H-benzimidazol-2-amine]	70.8
